Results as given in patent publication US20240122906A1, “METHODS OF TREATING MELANOMA WITH RIPRETINIB” (Deciphera Pharmaceuticals, LLC, priority 2021, published 2024).
One block for each molecule: values may come before it.

Experiments:
[1] = Food effect (high-fat meal) on ripretinib and Compound A exposure; type: in vivo; conditions: for AUC0-24h higher by / Cmax higher by: ripretinib 150 mg dose with a high-fat meal
Experimental: The effect of a high-fat breakfast on ripretinib and Compound A exposure was evaluated. A high fat meal consisted of approximately 150, 250, and 500-600 calories from protein, carbohydrate, and fat, respectively. […] Therefore, ripretinib may be taken with or without food at approximately same time each day.

[2] = Coadministration of ripretinib with a proton-pump inhibitor (pantoprazole): exposure; type: in vivo; conditions: for differences in plasma exposure: ripretinib coadministered with pantoprazole
Experimental: The effect of a proton-pump inhibitor on the exposure of ripretinib was evaluated.

[3] = Coadministration of ripretinib with a strong CYP3A inhibitor (itraconazole): exposure; type: in vivo; conditions: coadministration of ripretinib with itraconazole (strong CYP3A inhibitor and P-gp inhibitor)
[4] = system: patients with melanoma; experiment: Phase 1 study of treating melanoma with ripretinib (efficacy, RECIST 1.1); type: in vivo, human
Experimental: This is a Phase 1 study to evaluate the efficacy of ripretinib in treating patients with melanoma. An efficacy cohort of 26 patients were enrolled. Each patient was administered 150 mg of ripretinib daily in repeated 28-day cycles until disease progression, unacceptable toxicity, or consent withdrawal. Patients who had disease progression at ripretinib 150 mg QD were allowed to escalate to 150 mg twice daily (BID) after the completion of Cycle 2. The efficacy endpoints includes Objective Response Rate (ORR), Disease Control Rate (DCR), Duration of Response (DOR) Time to Best Response (TBR), and progression-free survival (PFS) as determined by radiologic review using Response Evaluation Criteria in Solid Tumors (RECIST 1.1).
Prior tyrosine kinase inhibitor (TKI) treatment analysis. […] 17 of the 25 members of the cohort received no prior TKI and, among these members, the mPFS was determined to be 10.2 months and the ORR was determined to be 29.4% (5 out of 17 members). 8 of the 25 members received TKI treatment prior to receiving ripretinib and, among these members, the mPFS was determined to be 2.9 months and the ORR was determined to be 11% (1 out of […] members).
Mutational Analysis. An analysis of the efficacy of ripretinib based on baseline mutations of melanoma among the efficacy cohort was performed. […] L576P (Exon 11), K642E (Exon 13) and N822K/Y (Exon 17) were determined to be the most prevalent baseline mutations in this cohort.

[5] = Solubility; type: physicochemical
[6] = investigator assessment, Total (N = 26)
[7] = investigator assessment, Total, n 6

AUC0-24h higher by [1]: 47% | Cmax higher by [1]: 66% | differences in plasma exposure [2]: No clinically significant differences | increase in AUC0-inf [3]: 99% | increase in Cmax [3]: no change
Compound: CCn1c(=O)c(-c2cc(NC(=O)Nc3ccccc3)c(F)cc2Br)cc2cnc(N)cc21 [Compound A]

AUC0-24h higher by [1]: 30% | Cmax higher by [1]: 22% | effect on ripretinib exposure ([2]; 40 mg QD pantoprazole with 150 mg QD ripretinib): did not affect ripretinib exposure | differences in plasma exposure [2]: No clinically significant differences | solubility [5]: pH-dependent solubility | increase in AUC0-inf [3]: 99% | increase in Cmax [3]: 36%
Compound: CCn1c(=O)c(-c2cc(NC(=O)Nc3ccccc3)c(F)cc2Br)cc2cnc(NC)cc21 [ripretinib]
food effect, clinical significance ([1]; based on exposure-response analysis): not considered to be clinically significant | median PFS ([4]; 150 mg daily, 28-day cycles, whole efficacy cohort): 7.3 months | confirmed ORR ([4]; Exon 11 patients): 44% | median PFS ([4]; Exon 11 patients): 10.2 months | median duration of response ([4]; Exon 11 patients): 10.5 months | median time to confirmed response ([4]; Exon 11 patients): 1.9 months | confirmed ORR ([4]; Exon 17 patients): 18% | median PFS ([4]; Exon 17 patients): 13.6 months | median duration of response ([4]; Exon 17 patients): 8.1 months | median time to confirmed response ([4]; Exon 17 patients): 1.7 months | Confirmed Partial Response, % ([4]; KIT Exon 11 (N = 9)): (44.4) % | No Response Assessment, % ([4]; KIT Exon 11 (N = 9)): (11.1) % | Progressive Disease, % ([4]; KIT Exon 11 (N = 9)): (11.1) % | Stable Disease (≥6 wks), % ([4]; KIT Exon 11 (N = 9)): (33.3) % | Progressive Disease, % ([4]; KIT Exon 13 (N = 4)): (50.0) % | Stable Disease (≥6 wks), % ([4]; KIT Exon 13 (N = 4)): (50.0) % | Confirmed Complete Response, % ([4]; KIT Exon 17 (N = 11)): (9.1) % | Confirmed Partial Response, % ([4]; KIT Exon 17 (N = 11)): (9.1) % | Progressive Disease, % ([4]; KIT Exon 17 (N = 11)): (36) % | Stable Disease (≥6 wks), % ([4]; KIT Exon 17 (N = 11)): (45.5) % | Progressive Disease, % ([4]; KIT Exon 18 (N = 1)): 100.0% | Stable Disease (≥6 wks), % ([4]; KIT Exon Amplification (N = 1)): 100.0% | Objective Response Rate, % ([4]; investigator assessment, Total): (23.1) % | Time to Response, Median ([4]; investigator assessment, Total): 1.9 Months | Best Overall Response: Confirmed Complete Response, % [4, 6]: (3.8) % | Best Overall Response: Confirmed Partial Response, % [4, 6]: (19.2) % | Best Overall Response: No Response Assessment, % [4, 6]: (4) % | Best Overall Response: Progressive Disease, % [4, 6]: (31) % | Best Overall Response: Stable Disease (≥6 weeks duration), % [4, 6]: (42.3) % | Duration of Response, Max [4, 7]: 28.6 Months | Duration of Response, Mean [4, 7]: 10.5 Months | Duration of Response, Median [4, 7]: 9.1 Months | Duration of Response, Min [4, 7]: 4.1 Months | mPFS ([4]; no prior TKI treatment): 10.2 months | ORR ([4]; no prior TKI treatment (5 out of 17)): 29.4% | mPFS ([4]; prior TKI treatment): 2.9 months | ORR ([4]; prior TKI treatment (1 out of 9)): 11% | confirmed ORR ([4]; radiologic review using RECIST version 1.1, whole cohort (6 out of 26)): 23.1% | confirmed and unconfirmed ORR ([4]; whole cohort): 30.8% | median DOR (mDOR) ([4]; whole cohort): 9.1 months
